Target: T1, NLRP3 inflammasome (Homo sapiens, UniProt Q96P20)
T1 construct: host or cells: THP-1 human monocytic cells, PMA-treated, stimulated with gramicidin
Test: ASC-SPECK formation in THP-1 cells after gramicidin stimulation (NLRP3 inflammasome activation)
Format: cell-based
Conditions: PMA-treated human monocytic THP-1 cells, compound 1 h before 12.5 ug/ml gramicidin, 3 h, ASC SPECK imaging; read-out: EC50 (nM) for Examples that inhibit NLRP3 inflammasome activation
Protocol: The ability of compounds to inhibit NLRP3 inflammasome activation was determined in vitro by monitoring formation of the ASC-SPECK in human monocytic THP-1 cells after stimulation. THP-1 cells (ATCC catalog #TIB-202) were maintained in complete growth media containing Roswell Park Memorial Institute RPMI (ATCC catalog #30-2001), 10% heat inactivated fetal bovine serum, 1× penicillin/streptomycin and 0.05 mM 2-mercaptoethanol. At the start of the assay, undifferentiated THP-1 cells were plated at a density of 20,000 cells per well in a 384-well plate (Poly-D-lysine coated Cell Carrier Ultra microplate, Perkin Elmer catalog #6057500) in complete growth media supplemented with 10 ng/ml phorbol 12-myristate 13-acetate (PMA; Sigma catalog #P8139), and then incubated overnight. The next day, media was replaced with assay media [RPMI (Gibco catalog #11875-093), 0.01% bovine serum albumin (BSA)]. Compounds were serially diluted in DMSO and then added to wells one hour prior to the addition of 12.5 ug/ml Gramicidin (Enzo Lifescience, catalog #ALX-350-233-M005). All incubations were carried out at 37° C. (5% CO2/95% air). Following a 3-hour treatment with gramicidin, cells are fixed with 4% paraformaldehyde and stored at 4° C. until immunofluorescence staining.
Immunofluorescence staining: Anti-ASC antibody (MBL catalog #D086-3) was desalted and labeled with Alexa 488 antibody labeling kit (Thermo catalog #A20181) prior to use as described below. After fixation, the following steps were carried out at room temperature. Cells were first permeabilized with 0.3% Triton X-100 in phosphate-buffered saline (PBS) for 15 minutes and then incubated in blocking buffer containing 5% goat serum, 0.3% tween-20 and 0.03% sodium azide in PBS for 1 hour. Cells were stained with a mixture of ASC-Alexa 488 antibody (diluted 1:200 in blocking buffer) and nuclear stain DRAQ5 (1:5000 in blocking buffer, Thermo catalog #62251) in blocking buffer for 1 hour. Following a wash with 0.3% Tween-20 in PBS, plates were imaged with an Opera Phenix High Content Screening System. The number of DRAQ5 positive cells containing ASC SPECKS were quantified in each well.
Data analysis: EC50 values were calculated by standard curve-fitting analysis using an internally developed program in TIBCO Spotfire software.

T1 sequence (Q96P20 whole entry): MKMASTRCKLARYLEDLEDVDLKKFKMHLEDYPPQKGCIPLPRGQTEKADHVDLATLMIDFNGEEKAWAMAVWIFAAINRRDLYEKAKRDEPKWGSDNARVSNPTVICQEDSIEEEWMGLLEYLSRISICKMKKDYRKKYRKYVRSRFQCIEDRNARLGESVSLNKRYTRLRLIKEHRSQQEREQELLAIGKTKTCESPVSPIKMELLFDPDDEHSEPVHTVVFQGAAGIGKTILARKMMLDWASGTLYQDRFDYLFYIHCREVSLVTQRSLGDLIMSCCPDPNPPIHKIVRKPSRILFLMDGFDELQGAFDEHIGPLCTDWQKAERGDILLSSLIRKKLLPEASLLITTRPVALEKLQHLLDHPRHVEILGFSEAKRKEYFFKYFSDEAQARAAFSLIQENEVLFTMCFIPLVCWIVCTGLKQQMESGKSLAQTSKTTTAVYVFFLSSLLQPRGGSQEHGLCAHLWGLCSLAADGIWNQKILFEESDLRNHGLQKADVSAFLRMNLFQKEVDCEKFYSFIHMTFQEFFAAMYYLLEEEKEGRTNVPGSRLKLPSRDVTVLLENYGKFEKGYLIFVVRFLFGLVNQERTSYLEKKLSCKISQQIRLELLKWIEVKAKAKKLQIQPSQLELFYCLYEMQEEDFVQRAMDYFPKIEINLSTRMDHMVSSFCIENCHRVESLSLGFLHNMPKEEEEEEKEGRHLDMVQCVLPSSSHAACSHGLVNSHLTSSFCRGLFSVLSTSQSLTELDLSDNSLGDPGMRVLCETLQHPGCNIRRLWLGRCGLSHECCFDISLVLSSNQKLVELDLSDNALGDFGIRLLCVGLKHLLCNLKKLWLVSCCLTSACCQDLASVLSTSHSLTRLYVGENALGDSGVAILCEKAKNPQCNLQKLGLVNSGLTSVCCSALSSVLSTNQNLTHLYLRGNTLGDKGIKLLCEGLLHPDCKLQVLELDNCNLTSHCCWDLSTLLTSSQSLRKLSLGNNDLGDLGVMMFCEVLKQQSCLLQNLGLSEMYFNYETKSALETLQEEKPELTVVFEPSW

In order of falling EC50:
1. Cc1cc(C(F)(F)F)ccc1-c1nnc([C@H]2C[C@@H](C)O[C@@H](C)C2)c2ccccc12 [Example 53, 1-((2R,4r,6S)-2,6-dimethyltetrahydro-2H-pyran-4-yl)-4-(2-methyl-4-(trifluoromethyl)phenyl)phthalazine]  3970 nM
2. Cc1cccc2c(N3C[C@@H](C)O[C@@H](C)C3)nnc(-c3ccc(C(F)(F)F)cc3O)c12 [Example 15, 2-(4-((cis)-2,6-dimethylmorpholino)-8-methylphthalazin-1-yl)-5-(trifluoromethyl)phenol]  3680 nM
3. CC(C)(O)[C@@H]1CCN(c2nnc(-c3ccc(C(F)(F)F)cc3O)c3cccnc23)C1 [Example 49, (R)-2-(8-(3-(2-hydroxypropan-2-yl)pyrrolidin-1-yl)pyrido[2,3-d]pyridazin-5-yl)-5-(trifluoromethyl)phenol]  1790 nM
4. Oc1cc(C(F)(F)F)ccc1-c1nnc(N2CCC(O)(c3ccccc3)C2)c2ncccc12 (racemic) [Example 38, (R and S)-1-(5-(2-hydroxy-4-(trifluoromethyl)phenyl)pyrido [2,3-d]pyridazin-8-yl)-3-phenylpyrrolidin-3-ol]  1600 nM
5. C[C@@H]1C[C@@](O)(c2nnc(-c3ccc(C(F)(F)F)cc3O)c3cccnc23)C[C@H](C)O1 [Example 55, (2R,4r,6S)-4-(5-(2-hydroxy-4-(trifluoromethyl)phenyl)pyrido[2,3-d]-pyridazin-8-yl)-2,6-dimethyltetrahydro-2H-pyran-4-ol]  1340 nM
6. CC(C)(O)[C@H]1CCN(c2nnc(-c3ccc(C(F)(F)F)cc3O)c3cccnc23)C1 [Example 50, (S)-2-(8-(3-(2-hydroxypropan-2-yl)pyrrolidin-1-yl)pyrido[2,3-d]pyridazin-5-yl)-5-(trifluoromethyl)phenol]  1330 nM
7. Oc1cc(C(F)(F)F)ccc1-c1nnc(N2CCC3(CCCO3)CC2)c2ncccc12 [Example 30, 2-(8-(1-oxa-8-azaspiro[4.5]decan-8-yl)pyrido[2,3-d]pyridazin-5-yl)-5-(trifluoromethyl)phenol]  1270 nM
8. Oc1cc(C(F)(F)F)ccc1-c1nnc(N2CCC(O)(C(F)(F)F)C2)c2ncccc12 (racemic) [Example 27, (R and S)-1-(5-(2-hydroxy-4-(trifluoromethyl)phenyl)pyrido [2,3-d]pyridazin-8-yl)-3-(trifluoromethyl)pyrrolidin-3-ol]  1230 nM
9. Oc1cc(C(F)(F)F)ccc1-c1nnc(N2C[C@@H]3[C@H](C2)C3(F)F)c2ncccc12 [Example 41, 2-(8-(6,6-difluoro-3-azabicyclo[3.1.0]hexan-3-yl)pyrido[2,3-d]pyridazin-5-yl)-5-(trifluoromethyl)phenol]  999 nM
10. Oc1cc(C(F)(F)F)ccc1-c1nnc(N2CCC3(CCOC3)CC2)c2ncccc12 [Example 31, 2-(8-(2-oxa-8-azaspiro[4.5]decan-8-yl)pyrido[2,3-d]pyridazin-5-yl)-5-(trifluoromethyl)phenol]  915 nM
11. C[C@@H]1CN(c2nnc(-c3ccc(C(F)(F)F)cc3OC(F)F)c3cccnc23)C[C@H](C)O1 [Example 3, (cis)-4-(5-(2-(difluoromethoxy)-4-(trifluoromethyl)phenyl)pyrido[2,3-d]pyridazin-8-yl)-2,6-dimethylmorpholine]  891 nM
12. Cc1ccc2c(N3C[C@@H](C)O[C@@H](C)C3)nnc(-c3ccc(C(F)(F)F)cc3O)c2c1 [Example 21, 2-(4-((cis)-2,6-dimethylmorpholino)-7-methylphthalazin-1-yl)-5-(trifluoromethyl)phenol]  815 nM
13. C[C@@H]1CN(c2nnc(-c3ccc4occc4c3)c3ccncc23)C[C@H](C)O1 [Example 11, (cis)-4-(1-(benzofuran-5-yl)pyrido[3,4-d]pyridazin-4-yl)-2,6-dimethylmorpholine]  750 nM
14. CCC1(O)CCN(c2nnc(-c3ccc(C(F)(F)F)cc3O)c3cccnc23)C1 (racemic) [Example 47, (R and S)-3-ethyl-1-(5-(2-hydroxy-4-(trifluoromethyl)phenyl)pyrido [2,3-d]pyridazin-8-yl)pyrrolidin-3-ol]  494 nM
15. Oc1cc(C(F)(F)F)ccc1-c1nnc(N2CC(O)C(F)(F)C2)c2ncccc12 (racemic) [Example 43, (R and S)-4,4-difluoro-1-(5-(2-hydroxy-4-(trifluoromethyl)phenyl)pyrido [2,3-d]pyridazin-8-yl)pyrrolidin-3-ol]  482 nM
16. Oc1cc(C(F)(F)F)ccc1-c1nnc(N2CCC(O)(C(F)F)C2)c2ncccc12 (racemic) [Example 28, (R and S)-3-(difluoromethyl)-1-(5-(2-hydroxy-4-(trifluoromethyl)phenyl)pyrido [2,3-d]pyridazin-8-yl)pyrrolidin-3-ol]  447 nM
17. CC(=O)N1CCC2(CCN(c3nnc(-c4ccc(C(F)(F)F)cc4O)c4cccnc34)CC2)C1 [Example 35, 1-(8-(5-(2-hydroxy-4-(trifluoromethyl)phenyl)pyrido [2,3-d]pyridazin-8-yl)-2,8-diazaspiro[4.5]decan-2-yl)ethan-1-one]  420 nM
18. C[C@]1(O)CCN(c2nnc(-c3ccc(C(F)(F)F)cc3O)c3cnccc23)C1 (single isomer, unassigned) [Example 1]  356 nM
19. Oc1cc(C(F)(F)F)ccc1-c1nnc(N2CCC3(CCCO3)C2)c2ncccc12 (racemic) [Example 29, (R and S)-2-(8-(1-oxa-7-azaspiro[4.4]nonan-7-yl)pyrido[2,3-d]pyridazin-5-yl)-5-(trifluoromethyl)phenol]  353 nM
20. O=C1NCC2(CCN(c3nnc(-c4ccc(C(F)(F)F)cc4O)c4cccnc34)CC2)O1 [Example 40, 8-(5-(2-hydroxy-4-(trifluoromethyl)phenyl)pyrido [2,3-d]pyridazin-8-yl)-1-oxa-3,8-diazaspiro[4.5]decan-2-one]  304 nM
21. C[C@@H]1CN(c2nnc(-c3ccc(C(F)(F)F)cc3O)c3cnccc23)C[C@H](C)[C@]1(C)O [Example 17, (3S,4s,5R)-1-(4-(2-hydroxy-4-(trifluoromethyl)phenyl)pyrido[3,4-d]pyridazin-1-yl)-3,4,5-trimethylpiperidin-4-ol]  201 nM
22. O=C1NC2(CCN(c3nnc(-c4ccc(C(F)(F)F)cc4O)c4cccnc34)CC2)CO1 [Example 25, 8-(5-(2-hydroxy-4-(trifluoromethyl)phenyl)pyrido [2,3-d]pyridazin-8-yl)-3-oxa-1,8-diazaspiro[4.5]decan-2-one]  148 nM
23. C[C@]1(O)CCN(c2nnc(-c3ccc(C(F)(F)F)cc3O)c3cccnc23)C1 [Example 22, (S)-1-(5-(2-hydroxy-4-(trifluoromethyl)phenyl)pyrido[2,3-d]-pyridazin-8-yl)-3-methylpyrrolidin-3-ol]  124 nM
24. C[C@@H]1CN(c2nnc(-c3ccc(C(F)(F)F)cc3O)c3ccncc23)C[C@H](C)O1 [Example 4, 2-(4-((cis)-2,6-dimethylmorpholino)pyrido[3,4-d]pyridazin-1-yl)-5-(trifluoromethyl)phenol]  82 nM
25. CC1CN(c2nnc(-c3ccc(C(F)(F)F)cc3O)c3cccnc23)CC(CO)O1 (single isomer, unassigned) [Example 52, 2-(8-((2S,6S or 2R,6R)-2-(hydroxy-methyl)-6-methyl-morpholino)pyrido[2,3-d]pyridazin-5-yl)-5-(trifluoro-methyl)phenol]  74 nM
26. CC1CN(c2nnc(-c3ccc(C(F)(F)F)cc3O)c3cccnc23)CC(CO)O1 (single isomer, unassigned) [Example 51, 2-(8-((2R,6R or 2S,6S)-2-(hydroxymethyl)-6-methylmorpholino)pyrido[2,3-d]pyridazin-5-yl)-5-(trifluoromethyl) phenol]  65 nM
27. Cc1ccc2c(-c3ccc(C(F)(F)F)cc3O)nnc(N3CC[C@](C)(O)C3)c2n1 [Example 10, (S)-1-(5-(2-hydroxy-4-(trifluoromethyl)phenyl)-2-methylpyrido[2,3-d]pyridazin-8-yl)-3-methylpyrrolidin-3-ol]  60 nM
28. C[C@]1(O)CCN(c2nnc(-c3ccc(C(F)(F)F)cc3O)c3ccncc23)C1 (single isomer, unassigned) [Example 2]  49 nM
29. Cc1ccc2c(-c3ccc(C(F)(F)F)cc3O)nnc(N3C[C@@H](C)O[C@@H](C)C3)c2c1 (single isomer, unassigned) [Example 20, 2-(4-((cis)-2,6-dimethylmorpholino)-6-methylphthalazin-1-yl)-5-(trifluoromethyl)phenol]  33 nM

Source: patent publication US20240124451A1, “PHTHALAZINE DERIVATIVES USEFUL AS INHIBITORS OF NOD-LIKE RECEPTOR PROTEIN 3” (Merck Sharp & Dohme LLC, priority 2022, published 2024)
